Test results as given in patent US9452986B2, “6-heteroaryloxy- or 6-aryloxy-quinoline-2-carboxamides and method of use” (AbbVie Inc., priority 2014, dated 2016).

Molecular target: recombinant human Nav1.7 (Homo sapiens (Human), UniProt Q15858)
Assay: FRET-based membrane potential assay, recombinant human sodium channel Nav1.7
Format: cell-based
Details: HEK293 cells stably expressing recombinant human Nav1.7; veratridine + scorpion venom depolarization; read-out: FRET-Membrane Potential Nav1.7 IC50
Method in brief: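 Channel activation used veratridine at its EC80, set by a dilution curve each experiment, together with Leiurus scorpion venom, added 3 min after compound. Membrane-potential ratio signals from FLIPR Tetra in HEPES-buffered HBSS were fitted to a four-parameter Hill equation for percent inhibition and IC50.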

recombinant human Nav1.7, sequence (Q15858 whole entry): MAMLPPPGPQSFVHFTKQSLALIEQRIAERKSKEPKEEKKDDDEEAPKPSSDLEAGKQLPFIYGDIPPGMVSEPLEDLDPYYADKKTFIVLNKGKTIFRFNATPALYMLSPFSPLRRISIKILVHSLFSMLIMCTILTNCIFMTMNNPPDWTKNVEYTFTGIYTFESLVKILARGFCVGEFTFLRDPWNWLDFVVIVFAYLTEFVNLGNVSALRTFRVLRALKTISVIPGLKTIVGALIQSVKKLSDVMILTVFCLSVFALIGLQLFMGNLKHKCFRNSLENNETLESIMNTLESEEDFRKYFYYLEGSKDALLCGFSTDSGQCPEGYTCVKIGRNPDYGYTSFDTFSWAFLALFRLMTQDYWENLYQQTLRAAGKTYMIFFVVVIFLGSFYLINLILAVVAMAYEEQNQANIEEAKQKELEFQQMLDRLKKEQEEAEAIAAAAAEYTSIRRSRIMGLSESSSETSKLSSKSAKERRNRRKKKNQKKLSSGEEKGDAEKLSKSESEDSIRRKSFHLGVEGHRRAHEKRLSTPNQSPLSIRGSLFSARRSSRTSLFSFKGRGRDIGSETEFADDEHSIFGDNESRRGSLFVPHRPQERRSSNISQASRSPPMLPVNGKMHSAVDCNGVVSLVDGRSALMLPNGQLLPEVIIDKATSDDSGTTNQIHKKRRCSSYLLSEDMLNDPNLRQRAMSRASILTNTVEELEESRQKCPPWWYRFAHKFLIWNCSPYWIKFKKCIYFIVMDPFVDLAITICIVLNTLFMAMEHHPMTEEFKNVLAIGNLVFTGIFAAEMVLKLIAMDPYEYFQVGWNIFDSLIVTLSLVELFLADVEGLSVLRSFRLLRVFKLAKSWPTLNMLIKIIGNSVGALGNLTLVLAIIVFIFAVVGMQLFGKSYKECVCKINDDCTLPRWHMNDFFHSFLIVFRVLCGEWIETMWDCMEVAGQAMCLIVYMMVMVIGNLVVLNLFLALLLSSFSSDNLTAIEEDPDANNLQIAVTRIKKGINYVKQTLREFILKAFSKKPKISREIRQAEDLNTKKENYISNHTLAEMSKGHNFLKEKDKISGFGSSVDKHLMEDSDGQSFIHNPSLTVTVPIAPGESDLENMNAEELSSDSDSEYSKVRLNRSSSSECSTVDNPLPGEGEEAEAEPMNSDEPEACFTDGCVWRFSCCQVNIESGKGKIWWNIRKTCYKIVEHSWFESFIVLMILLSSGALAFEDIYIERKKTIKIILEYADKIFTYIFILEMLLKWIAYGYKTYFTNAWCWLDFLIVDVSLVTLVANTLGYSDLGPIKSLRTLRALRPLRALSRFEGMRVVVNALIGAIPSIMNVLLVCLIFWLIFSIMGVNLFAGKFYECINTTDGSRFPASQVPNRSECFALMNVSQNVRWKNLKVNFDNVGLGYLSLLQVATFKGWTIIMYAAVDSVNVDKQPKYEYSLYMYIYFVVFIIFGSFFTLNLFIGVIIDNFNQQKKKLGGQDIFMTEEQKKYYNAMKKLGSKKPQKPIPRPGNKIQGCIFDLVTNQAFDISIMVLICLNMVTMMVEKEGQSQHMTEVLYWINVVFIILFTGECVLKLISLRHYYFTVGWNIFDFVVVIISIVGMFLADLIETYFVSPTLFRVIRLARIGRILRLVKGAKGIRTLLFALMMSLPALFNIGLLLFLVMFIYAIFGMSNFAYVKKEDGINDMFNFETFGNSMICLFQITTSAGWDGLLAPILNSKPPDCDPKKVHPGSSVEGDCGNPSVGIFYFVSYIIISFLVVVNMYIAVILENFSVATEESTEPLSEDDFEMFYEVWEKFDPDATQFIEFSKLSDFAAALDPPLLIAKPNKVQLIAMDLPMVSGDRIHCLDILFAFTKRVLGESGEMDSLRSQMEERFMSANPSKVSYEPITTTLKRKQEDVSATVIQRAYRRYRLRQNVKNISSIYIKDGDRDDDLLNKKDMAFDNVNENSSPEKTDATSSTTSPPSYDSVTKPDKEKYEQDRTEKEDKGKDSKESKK

Molecule	IC50
N#Cc1ccc(Oc2ccc3nc(C(=O)N4CCNCC4)ccc3c2)nc1 [Example 328, 6-{[2-(piperazin-1-ylcarbonyl)quinolin-6-yl]oxy}nicotinonitrile]	> 20000 nM
CC(=O)Nc1ncc(S(=O)(=O)N2CCN(C(=O)c3ccc4cc(Oc5ccc(C(F)(F)F)cn5)ccc4n3)CC2)s1 [Example 389, N-[5-({4-[(6-{[5-(trifluoromethyl)pyridin-2-yl]oxy}quinolin-2-yl)carbonyl]piperazin-1-yl}sulfonyl)-1,3-thiazol-2-yl]acetamide]	9220 nM
1,4-diazepan-1-yl(6-{[5-(trifluoromethyl)pyridin-2-yl]oxy}quinolin-2-yl)methanone [Example 219]	2560 nM
O=C(NCC(=O)N1CCOCC1)c1ccc2cc(Oc3ccc(C(F)(F)F)cn3)ccc2n1 [Example 443, N-[2-(morpholin-4-yl)-2-oxoethyl]-6-{[5-(trifluoromethyl)pyridin-2-yl]oxy}quinoline-2-carboxamide]	703 nM
CN1CCC(NC(=O)c2ccc3cc(Oc4ccc(C(F)(F)F)cn4)ccc3n2)C1=O (stereo not drawn) [Example 587, N-(1-methyl-2-oxopyrrolidin-3-yl)-6-{[5-(trifluoromethyl)pyridin-2-yl]oxy}quinoline-2-carboxamide]	1020 nM
CC1(O)CCN(C(=O)c2ccc3cc(Oc4ccc(C(F)(F)F)cn4)ccc3n2)CC1 [Example 255, (4-hydroxy-4-methylpiperidin-1-yl)(6-{[5-(trifluoromethyl)pyridin-2-yl]oxy}quinolin-2-yl)methanone]	12100 nM
O=C(NCC1(O)CCOCC1)c1ccc2cc(Oc3ccc(C(F)(F)F)cn3)ccc2n1 [Example 362, N-[(4-hydroxytetrahydro-2H-pyran-4-yl)methyl]-6-{[5-(trifluoromethyl)pyridin-2-yl]oxy}quinoline-2-carboxamide]	1000 nM
O=C(c1ccc2cc(Oc3ccc(C(F)(F)F)cn3)ccc2n1)N1C[C@@H](F)C[C@@H]1c1cc(F)ccc1F [Example 179, [(2R,4S)-2-(2,5-difluorophenyl)-4-fluoropyrrolidin-1-yl](6-{[5-(trifluoromethyl)pyridin-2-yl]oxy}quinolin-2-yl)methanone]	684 nM
O=C(NC1CNC1)c1ccc2cc(Oc3ccc(C(F)(F)F)cn3)ccc2n1 [Example 216, N-(azetidin-3-yl)-6-{[5-(trifluoromethyl)pyridin-2-yl]oxy}quinoline-2-carboxamide]	1670 nM
O=C(c1ccc2cc(Oc3ccc(C(F)(F)F)cn3)ccc2n1)N1CC(n2cncn2)C1 [Example 204, [3-(1H-1,2,4-triazol-1-yl)azetidin-1-yl](6-{[5-(trifluoromethyl)pyridin-2-yl]oxy}quinolin-2-yl)methanone]	1630 nM
O=C(c1ccc2cc(Oc3ccc(C(F)(F)F)cn3)ccc2n1)N1CCN2C(=O)OCC2C1 (stereo not drawn) [Example 329, 7-[(6-{[5-(trifluoromethyl)pyridin-2-yl]oxy}quinolin-2-yl)carbonyl]hexahydro[1,3]oxazolo[3,4-a]pyrazin-3-one]	9280 nM
CC1CN(C(=O)c2ccc3cc(Oc4ccc(C(F)(F)F)cn4)ccc3n2)CC(C)N1 (stereo not drawn) [Example 552, (3,5-dimethylpiperazin-1-yl)(6-{[5-(trifluoromethyl)pyridin-2-yl]oxy}quinolin-2-yl)methanone]	615 nM
O=C(c1ccc2cc(Oc3ccc(C(F)(F)F)cn3)ccc2n1)N1CC(Oc2ccc(Br)cc2)C1 [Example 206, [3-(4-bromophenoxy)azetidin-1-yl](6-{[5-(trifluoromethyl)pyridin-2-yl]oxy}quinolin-2-yl)methanone]	> 20000 nM
N#Cc1ccc(Oc2ccc3nc(C(=O)N4CCCC(C(F)(F)F)C4)ccc3c2)cc1 (stereo not drawn) [Example 110, 4-[(2-{[3-(trifluoromethyl)piperidin-1-yl]carbonyl}quinolin-6-yl)oxy]benzonitrile]	1960 nM
O=C(c1ccc2cc(Oc3ccc(C(F)(F)F)cn3)ccc2n1)N1CCN(c2ccccc2)CC1 [Example 262, (4-phenylpiperazin-1-yl)(6-{[5-(trifluoromethyl)pyridin-2-yl]oxy}quinolin-2-yl)methanone]	2090 nM
N#CC1CN(C(=O)c2ccc3cc(Oc4ccc(C(F)(F)F)cn4)ccc3n2)C1 [Example 367, 1-[(6-{[5-(trifluoromethyl)pyridin-2-yl]oxy}quinolin-2-yl)carbonyl]azetidine-3-carbonitrile]	2530 nM
CS(=O)(=O)NC(=O)c1ccc2cc(Oc3ccc(C#N)cc3)ccc2n1 [Example 115, 6-(4-cyanophenoxy)-N-(methylsulfonyl)quinoline-2-carboxamide]	11200 nM

Molecule	IC50
N#Cc1ccc(Oc2ccc3nc(C(=O)N4CCS(=O)(=O)CC4)ccc3c2)cc1 [Example 148, 4-({2[(1,1-dioxidothiomorpholin-4-yl)carbonyl]quinolin-6-yl}oxy)benzonitrile]	12100 nM
CC(C)OC(=O)N1CCN(C(=O)c2ccc3cc(Oc4ccc(C(F)(F)F)cn4)ccc3n2)CC1 [Example 277, isopropyl 4-[(6-{[5-(trifluoromethyl)pyridin-2-yl]oxy}quinolin-2-yl)carbonyl]piperazine-1-carboxylate]	3090 nM
O=C(NC1CCOCC1)c1ccc2cc(Oc3ccc(C(F)(F)F)cn3)ccc2n1 [Example 327, N-(tetrahydro-2H-pyran-4-yl)-6-{[5-(trifluoromethyl)pyridin-2-yl]oxy}quinoline-2-carboxamide]	557 nM
O=C1CC(NC(=O)c2ccc3cc(Oc4ccc(C(F)(F)F)cn4)ccc3n2)C1 [Example 432, N-(3-oxocyclobutyl)-6-{[5-(trifluoromethyl)pyridin-2-yl]oxy}quinoline-2-carboxamide]	2870 nM
O=C(c1ccc2cc(Oc3ccc(C(F)(F)F)cn3)ccc2n1)N1CCn2cncc2C1 [Example 173, 5,6-dihydroimidazo[1,5-a]pyrazin-7(8H)-yl(6-{[5-(trifluoromethyl)pyridin-2-yl]oxy}quinolin-2-yl)methanone]	833 nM
O=C(c1ccc2cc(Oc3ccc(C(F)(F)F)nc3)ccc2n1)N1CCN[C@@H](CO)C1 [Example 544, [(3R)-3-(hydroxymethyl)piperazin-1-yl](6-{[6-(trifluoromethyl)pyridin-3-yl]oxy}quinolin-2-yl)methanone]	3450 nM
CCCN(CCOC)C(=O)c1ccc2cc(Oc3ccc(C#N)cc3)ccc2n1 [Example 107, 6-(4-cyanophenoxy)-N-(2-methoxyethyl)-N-propylquinoline-2-carboxamide]	4120 nM
O=C(N[C@@H]1CCNC[C@H]1F)c1ccc2cc(Oc3ccc(C(F)(F)F)cn3)ccc2n1 [Example 584, N-[(3R,4R)-3-fluoropiperidin-4-yl]-6-{[5-(trifluoromethyl)pyridin-2-yl]oxy}quinoline-2-carboxamide]	304 nM
O=C(c1ccc2cc(Oc3ccc(C(F)(F)F)cn3)ccc2n1)N1CCN(S(=O)(=O)c2cccnc2)CC1 [Example 183, [4-(pyridin-3-ylsulfonyl)piperazin-1-yl](6-{[5-(trifluoromethyl)pyridin-2-yl]oxy}quinolin-2-yl)methanone]	> 20000 nM
N#Cc1ccc(Oc2ccc3nc(C(=O)N4CCC(N5CCOCC5)CC4)ccc3c2)cc1 [Example 138, 4-[(2-{[4-(morpholin-4-yl)piperidin-1-yl]carbonyl}quinolin-6-yl)oxy]benzonitrile]	2470 nM
COCCNC(=O)CN(C)C(=O)c1ccc2cc(Oc3ccc(C(F)(F)F)cn3)ccc2n1 [Example 442, N-{2-[(2-methoxyethyl)amino]-2-oxoethyl}-N-methyl-6-{[5-(trifluoromethyl)pyridin-2-yl]oxy}quinoline-2-carboxamide]	5520 nM
O=C(c1ccc2cc(Oc3ccc(C(F)(F)F)cn3)ccc2n1)N1C[C@H](F)C[C@@H]1c1cc(F)ccc1F [Example 180, [(2R,4R)-2-(2,5-difluorophenyl)-4-fluoropyrrolidin-1-yl](6-{[5-(trifluoromethyl)pyridin-2-yl]oxy}quinolin-2-yl)methanone]	675 nM
COCCn1cc(S(=O)(=O)N2CCN(C(=O)c3ccc4cc(Oc5ccc(C(F)(F)F)cn5)ccc4n3)CC2)cn1 [Example 384, (4-{[1-(2-methoxyethyl)-1H-pyrazol-4-yl]sulfonyl}piperazin-1-yl)(6-{[5-(trifluoromethyl)pyridin-2-yl]oxy}quinolin-2-yl)methanone]	1930 nM
O=C(c1ccc2cc(Oc3ccc(C(F)(F)F)nc3)ccc2n1)N1CC(N2CCOCC2)C1 [Example 554, [3-(morpholin-4-yl)azetidin-1-yl](6-{[6-(trifluoromethyl)pyridin-3-yl]oxy}quinolin-2-yl)methanone]	14100 nM
Cc1ccnc(Oc2ccc3nc(C(=O)NC4CCS(=O)(=O)C4)ccc3c2)n1 (stereo not drawn) [Example 163, N-(1,1-dioxidotetrahydrothiophen-3-yl)-6-[(4-methylpyrimidin-2-yl)oxy]quinoline-2-carboxamide]	> 20000 nM
O=C(NC1CCCS(=O)(=O)C1)c1ccc2cc(Oc3ccc(C(F)(F)F)cn3)ccc2n1 (stereo not drawn) [Example 349, N-(1,1-dioxidotetrahydro-2H-thiopyran-3-yl)-6-{[5-(trifluoromethyl)pyridin-2-yl]oxy}quinoline-2-carboxamide]	3250 nM

Same assay, conditions: read-out: FRET-Membrane Potential Nav1.7 IC50

Molecule	IC50
CN(C)C(=O)[C@H](Cc1ccccc1)NC(=O)c1ccc2cc(Oc3ccc(C(F)(F)F)cn3)ccc2n1 [Example 501, N-[(2S)-1-(dimethylamino)-1-oxo-3-phenylpropan-2-yl]-6-{[5-(trifluoromethyl)pyridin-2-yl]oxy}quinoline-2-carboxamide]	734 nM
O=C(N[C@@H]1CC[C@@H]2CN(Cc3ccccc3)C[C@@H]21)c1ccc2cc(Oc3ccc(C(F)(F)F)cn3)ccc2n1 [Example 259, N-[(3aR,4R,6aS)-2-benzyloctahydrocyclopenta[c]pyrrol-4-yl]-6-{[5-(trifluoromethyl)pyridin-2-yl]oxy}quinoline-2-carboxamide]	2060 nM
N#Cc1ccc(Oc2ccc3nc(C(=O)NC4(CO)CC4)ccc3c2)cc1 [Example 123, 6-(4-cyanophenoxy)-N-[1-(hydroxymethyl)cyclopropyl]quinoline-2-carboxamide]	6550 nM
